According to paper PMC12155096 (International Journal of Molecular Sciences, 2025):
Structures can show the parent of a compound that is named as a salt. Where two headings read alike, the source gives them in different places.

Columns and labels:
Assay in all cases: biochemical
human CYP2D6 = human CYP2D6 (Homo sapiens, UniProt P10635); conditions: for AC50: CYP2D6 AC50 (half-maximal activity concentration)
human CYP2C19 = human CYP2C19 (Homo sapiens, UniProt P33261); conditions: for AC50: CYP2C19 AC50 (half-maximal activity concentration)
human CYP1A2 = molecular target: T1, human CYP1A2 (Homo sapiens, UniProt P05177); conditions: for IC50: CYP1A2 IC50 (half-maximal inhibitory concentration); for AC50: CYP1A2 AC50 (half-maximal activity concentration)
T1 sequence (P05177 1-516): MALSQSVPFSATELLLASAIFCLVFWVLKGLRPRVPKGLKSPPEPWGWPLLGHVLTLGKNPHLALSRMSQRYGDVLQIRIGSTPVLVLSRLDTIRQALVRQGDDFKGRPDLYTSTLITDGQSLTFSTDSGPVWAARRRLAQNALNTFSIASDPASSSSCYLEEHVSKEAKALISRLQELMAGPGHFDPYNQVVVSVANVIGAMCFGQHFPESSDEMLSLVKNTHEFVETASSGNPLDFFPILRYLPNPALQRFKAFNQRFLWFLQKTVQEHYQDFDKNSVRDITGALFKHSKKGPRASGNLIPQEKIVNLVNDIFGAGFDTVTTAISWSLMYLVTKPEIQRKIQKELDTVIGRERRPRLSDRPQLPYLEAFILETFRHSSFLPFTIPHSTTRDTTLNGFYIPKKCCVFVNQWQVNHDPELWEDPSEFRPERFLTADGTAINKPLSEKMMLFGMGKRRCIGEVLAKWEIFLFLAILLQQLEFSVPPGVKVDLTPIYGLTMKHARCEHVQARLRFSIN

human CYP2C9 = human CYP2C9 (Homo sapiens, UniProt P11712); conditions: for AC50: CYP2C9 AC50 (half-maximal activity concentration)
[1] = CYP2D6 IC50 (half-maximal inhibitory concentration)
[2] = CYP2C19 IC50 (half-maximal inhibitory concentration)
[3] = CYP2C9 IC50 (half-maximal inhibitory concentration)

Sequence of human CYP2D6 (P10635 whole entry): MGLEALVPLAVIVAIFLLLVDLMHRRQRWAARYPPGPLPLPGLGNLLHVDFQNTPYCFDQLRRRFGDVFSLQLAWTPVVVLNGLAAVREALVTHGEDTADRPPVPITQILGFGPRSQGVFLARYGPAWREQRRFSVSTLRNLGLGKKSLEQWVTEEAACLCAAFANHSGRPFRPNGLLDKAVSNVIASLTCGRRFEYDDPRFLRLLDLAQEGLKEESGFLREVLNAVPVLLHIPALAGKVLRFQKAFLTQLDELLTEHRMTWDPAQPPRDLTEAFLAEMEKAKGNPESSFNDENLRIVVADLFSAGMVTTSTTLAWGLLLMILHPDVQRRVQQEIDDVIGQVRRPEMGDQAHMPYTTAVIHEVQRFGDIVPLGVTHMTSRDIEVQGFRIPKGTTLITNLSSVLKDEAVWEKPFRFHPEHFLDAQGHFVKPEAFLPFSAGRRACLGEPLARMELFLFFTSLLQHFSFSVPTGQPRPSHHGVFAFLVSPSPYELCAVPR
Sequence of human CYP2C19 (P33261 whole entry): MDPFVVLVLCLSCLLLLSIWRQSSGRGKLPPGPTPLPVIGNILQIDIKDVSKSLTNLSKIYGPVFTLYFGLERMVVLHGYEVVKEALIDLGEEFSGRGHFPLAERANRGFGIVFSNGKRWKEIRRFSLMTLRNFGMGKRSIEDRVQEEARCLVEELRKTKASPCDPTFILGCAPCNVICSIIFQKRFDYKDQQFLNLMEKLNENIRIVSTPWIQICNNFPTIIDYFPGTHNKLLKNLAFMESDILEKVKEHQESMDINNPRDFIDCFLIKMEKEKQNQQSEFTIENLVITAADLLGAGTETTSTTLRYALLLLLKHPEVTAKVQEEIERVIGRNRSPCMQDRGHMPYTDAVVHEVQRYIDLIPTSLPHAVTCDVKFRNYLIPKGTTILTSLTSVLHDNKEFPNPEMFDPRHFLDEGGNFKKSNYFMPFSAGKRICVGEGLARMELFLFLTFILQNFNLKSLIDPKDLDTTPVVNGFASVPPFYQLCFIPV
Sequence of human CYP2C9 (P11712 whole entry): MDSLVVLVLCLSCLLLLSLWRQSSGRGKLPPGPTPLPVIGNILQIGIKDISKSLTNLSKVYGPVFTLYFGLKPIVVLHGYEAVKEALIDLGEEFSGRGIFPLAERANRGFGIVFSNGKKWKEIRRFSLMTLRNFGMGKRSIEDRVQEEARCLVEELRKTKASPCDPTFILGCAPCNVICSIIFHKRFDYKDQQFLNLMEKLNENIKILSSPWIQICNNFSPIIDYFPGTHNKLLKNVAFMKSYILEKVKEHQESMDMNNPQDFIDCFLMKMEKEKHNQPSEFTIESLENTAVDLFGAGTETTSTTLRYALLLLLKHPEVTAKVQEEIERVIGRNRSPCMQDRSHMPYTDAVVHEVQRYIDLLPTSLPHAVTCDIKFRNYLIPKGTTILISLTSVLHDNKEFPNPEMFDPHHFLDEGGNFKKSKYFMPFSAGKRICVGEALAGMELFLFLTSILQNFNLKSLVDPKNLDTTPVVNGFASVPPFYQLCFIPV

SMILES | IC50 (human CYP2D6; [1]) [µM] | IC50 (human CYP2C19; [2]) [µM] | IC50 (human CYP1A2) [µM] | IC50 (human CYP2C9; [3]) [µM] | further results
Cc1[nH]cnc1CN1CCc2c(c3ccccc3n2C)C1=O [Alosetron hydrochloride] | 10.8 | 27.8 | 0.89 | 1.66 | –
COc1ccc2c(c1OC)CN1CCc3cc4c(cc3[C@@H]1C2)OCO4 [Canadine] | 0.26 | 1.25 | 9.1 | 26.4 | –
CCCCCC(C=O)=Cc1ccccc1 [Pentylcinnamaldehyde] | – | – | – | – | AC50 (human CYP2D6): 49.4 µM; AC50 (human CYP2C19): 30.2 µM; AC50 (human CYP1A2): 29.1 µM; AC50 (human CYP2C9): 37 µM
COc1cc(C(C)=O)ccc1OCCCN1CCC(c2noc3cc(F)ccc23)CC1 [Iloperidone] | – | – | – | – | IC50 (human CYP2D6): 10.1 ± 2.8 µM; IC50 (human CYP2C9): 22.9 ± 14.1 µM
C=C(C)[C@H]1Cc2c(ccc3c2O[C@@H]2COc4cc(OC)c(OC)cc4[C@@H]2C3=O)O1 [Rotenone] | – | 1.04 | – | – | IC50 (human CYP2D6): 37.7 µM; IC50 (human CYP2C9): 9.2 µM
O=C(O)c1nn(Cc2ccc(Cl)cc2Cl)c2ccccc12 [Lonidamine] | – | – | – | – | AC50 (human CYP2D6): 66 µM; AC50 (human CYP2C9): 68 µM
CCOC(=O)C1=C(C)NC(C)=C(C(=O)OCC)C1c1ccccc1/C=C/C(=O)OC(C)(C)C [Lacidipine] | 15.7 | 6.72 | 23.9 | 1.29 | –
COc1ccc2cc3[n+](cc2c1OC)CCc1cc2c(cc1-3)OCO2 [Berberine chloride] | 0.52 | 26.9 | 23.6 | – | –
CCOC(=O)[C@H](CCc1ccccc1)N[C@H]1CCc2ccccc2N(CC(=O)O)C1=O [Benazepril] | 29.2 | 6.84 | 14 | 7.32 | –
CC1=C(C(=O)OC(C)C)C(c2cccc([N+](=O)[O-])c2)C(C(=O)OC2CN(C(c3ccccc3)c3ccccc3)C2)=C(N)N1 (centres unmarked) [Azelnidipine] | – | – | – | – | IC50 (human CYP2D6): 13.2 ± 3.2 µM; IC50 (human CYP2C19): 2.43 ± 0.68 µM; IC50 (human CYP2C9): 1.56 ± 0.18 µM
CC(C)(C)C(O)C(Oc1ccc(Cl)cc1)n1cncn1 (centres unmarked) [Triadimenol] | 65.1 | 1.38 | 33.6 | 34.4 | –
Clc1ccc(C(c2ccccc2Cl)C(Cl)Cl)cc1 (centres unmarked) [o,p'-DDD] | – | – | – | – | AC50 (human CYP2D6): 31.2 µM; AC50 (human CYP2C19): 1.05 µM; AC50 (human CYP2C9): 16.8 µM
CC(Cc1ccccc1)NCCn1cnc2c1c(=O)n(C)c(=O)n2C (centres unmarked) [Fenethylline hydrochloride] | 5.37 | 85.1 | – | – | –
O=C1CC2(CCCC2)CC(=O)N1CCNCC1COc2ccccc2O1 (centres unmarked) [Binospirone mesylate] | – | – | – | – | IC50 (human CYP2D6): 0.29 ± 0.02 µM; IC50 (human CYP2C19): 8.77 ± 1.42 µM; IC50 (human CYP2C9): 23.5 ± 5.69 µM
Nc1ccc(S(=O)(=O)Nc2nccs2)cc1 [Sulfathiazole] | – | – | – | – | AC50 (human CYP2D6): 56.1 µM; AC50 (human CYP1A2): 33.2 µM; AC50 (human CYP2C9): 13.3 µM
Cc1cc2c(OCC(CNC(C)(C)C)OC(=O)c3ccccc3)cccc2[nH]1 (centres unmarked) [Bopindolol] | – | – | – | – | IC50 (human CYP2D6): 0.64 ± 0.04 µM; IC50 (human CYP2C19): 23.9 ± 13 µM; IC50 (human CYP2C9): 6.95 ± 0.8 µM
O=C(OCC1(COC(=O)c2cccnc2)CCCC(COC(=O)c2cccnc2)(COC(=O)c2cccnc2)C1O)c1cccnc1 [Nicomolol] | 22.4 | 23.3 | – | 8.67 | –
CCCc1nn(C)c2c(=O)[nH]c(-c3cc(S(=O)(=O)N4CCN(C)CC4)ccc3OCC)nc12 [Sildenafil citrate] | 31.7 | 30.4 | – | 20.6 | –
CCC(=O)O[C@]1(C(=O)SCF)[C@H](C)C[C@H]2[C@@H]3C[C@H](F)C4=CC(=O)C=C[C@]4(C)[C@@]3(F)[C@@H](O)C[C@@]21C [Fluticasone propionate] | 13 | – | – | 4.84 | –
CC(Cc1cccc(C(F)(F)F)c1)NCCOC(=O)c1ccccc1 (centres unmarked) [Benfluorex hydrochloride] | 0.08 | 6.95 | 2.6 | 25.3 | –
CN1CCC(=C2c3ccccc3CC(=O)c3sccc32)CC1 [Ketotifen] | – | – | – | – | AC50 (human CYP2D6): 2.2 µM; AC50 (human CYP2C19): 37.5 µM
CN1CCN(CCC(=O)N2c3ccccc3Sc3ccc(C(F)(F)F)cc32)CC1 [Ftormetazine] | 0.14 | 27 | 29.2 | – | –
